In patent US20250339409A1, “USES OF PAN BET INHIBITORS” (VYNE THERAPEUTICS INC., priority 2021, published 2025):

Columns and labels:
[1] = tested on: IL-1β, IL-6, IL-8, IL-17, IL-18, IL-23, IL-36 and TNF-α; test: Serum pro-inflammatory cytokine assays (Luminex, ELISA) in the imiquimod model; format: in vivo, female Balb/c mice; settings: imiquimod-induced mice
Procedure: Immediately after the TEWL measurements on D14, mice are maintained under gas anesthesia and blood is taken from each mouse by intracardiac puncture. Blood samples are placed at +4° C. for 20 to 30 minutes before being centrifuged at 3000 rpm and +4° C. for 20 minutes. Serum is collected, frozen at −20° C. and then stored at −80° C. awaiting serum biomarkers assays (cytokines).
Assays of the 8 pro-inflammatory cytokines IL-1β, IL-6, IL-8, IL-17, IL-18, IL-23, IL-36 and TNF-α associated with psoriasis and other inflammatory diseases is performed on the isolated and frozen serum samples from blood collected at the end of the experiment on mice of the 7 experimental groups 1 to 7.
The Luminex® technique using magnetic beads technology and ProcartaPlex® immunoassay kit from the Invitrogen division of Thermofisher Scientific is used to perform the assays of the 7 multiplexed cytokines IL-1β, IL-6, IL-8, IL-17, IL-18, IL-23, and TNF-α. Analyte-specific antibodies for the 7 cytokines is pre-coated onto color-coded magnetic microparticles. Microparticles, standards and serum samples (non-diluted as recommended in the instruction manual) is pipetted into wells and the immobilized antibodies bind the analytes of interest. After washing away any unbound substances, a biotinylated antibody cocktail specific to the analytes of interest is added to each well. Following a wash to remove any unbound biotinylated antibody, streptavidin-phycoerythrin conjugate (Streptavidin-PE), which binds to the biotinylated antibody, is added to each well. A final wash removes unbound Streptavidin-PE and the microparticles is resuspended in buffer and read using a Bio-Rad Bio-Plex 200 Analyzer. A magnet in the analyzer captures and holds the superparamagnetic microparticles in a monolayer. Two spectrally distinct Light Emitting Diodes (LED) illuminate the microparticles. One LED identifies the analyte detected and the second LED determines the magnitude of the PE-derived signal, which is in direct proportion to the amount of the analyte bound. Each well is imaged with a Charged Coupled Device (CCD) camera. A representative standard curve from the 7 cytokines is diluted in a serial fourfold steps in specific standard buffer. Each standard, control and serum sample is analyzed in duplicate.
Quantitative sandwich Enzyme-Linked ImmunoSorbent Assay (ELISA) using mouse IL-36 immunoassay kit from the Invitrogen division of Thermofisher Scientific is used to perform the assay. A purified anti-mouse polyclonal antibody against the specific antigen IL-36 pre-coated onto a microplate is used. Standard, control, and serum samples, as recommended in the instruction manual, are pipetted into the wells and any mouse specific antigen present is bound by the immobilized antibody. After washing away any unbound substances, a biotin-conjugated anti-mouse IL-36 antibody is incubated in each well. Then, after washing, streptavidin-Horseradish Peroxidase (HRP) complex is added to the wells, allowing non-covalent biological interaction with biotin. Following several washes to remove any unbound complex, a TetraMethylBenzidine (TMB) substrate solution is added to the wells. The enzyme reaction yields a blue product that turns yellow when the stop solution is added. The intensity of the colour is measured at 450 nm and 570 nm using a microplate reader. The values of 570 nm are subtracted from those of 450 nm and data is in proportion to the amount of […] bound in the initial step. The serum samples values are then read off the standard curves. A representative standard curve from IL-36 is diluted in a serial two folds step in assay buffer. Each standard, control and serum sample is analyzed in duplicate.

right knee joint = test: Toxicity in dogs after intra-articular injection: mortality, pathology, knee joint histopathology (Mankin score); format: in vivo; settings: dog
Text: The purpose of this study was to determine the maximum tolerated dose and potential toxicity of BETi1 when administered by intra-articular injection to Beagle dogs and to determine local and systemic toxicokinetic characteristics associated with treatment of Beagle dogs with BETi1 formulations.
16 Beagle dogs (8 males, 8 females) were assigned to four treatment groups to determine toxicity of BETi1 formulations following intra-articular injection.
The experimental groups are presented below: • Group 1: Control; 0 mg of BETi1/animal dose • Group 2: Low Dose; 7.5 mg of BETi1/animal dose • Group 3: Mid Dose; 75 mg of BETi1/animal dose • Group 4: High Dose; 150 mg of BETi1/animal dose […]
Several features were measured in treated dogs, including viability, clinical observation, body weight, food consumption, clinical pathology (hematology, coagulation, serum chemistry, urinalysis), toxicokinetics, and pathology.
For all animals from the study, representative samples of organs and all gross lesions and masses from all groups were removed from fixative, trimmed, processed, embedded in paraffin, sectioned, stained with hematoxylin and eosin, and examined microscopically. […] A modified Semi-Quantitative Mankin scoring system was used to in evaluation of right knee joint histopathology, as shown in Table 48 below: […]

With `Cn1cc(-c2cccc(O)c2Oc2ccccc2)c2cc[nH]c2c1=O` [BETi1] the “Inflammatory Biomarkers, Mean score values, IL-1β” value (from here on “Inflammatory Biomarkers … IL-1β”) ([1]; D14, listed as BETi1 0.001%) was 49.00 pg/mL, the “Inflammatory Biomarkers, Mean score values, IL-6” value (“Inflammatory Biomarkers … IL-6” for short) ([1]; D14, listed as BETi1 0.001%) was 123.25 pg/mL and the “Inflammatory Biomarkers, Mean score values, IL-8” value (“Inflammatory Biomarkers … IL-8” below) ([1]; D14, listed as BETi1 0.001%) was 41.82 pg/mL. For the same molecule, the “Inflammatory Biomarkers, Mean score values, IL-17” value (shortened to “Inflammatory Biomarkers … IL-17”) ([1]; D14, listed as BETi1 0.001%) was 74.77 pg/mL, the “Inflammatory Biomarkers, Mean score values, IL-18” value (from here on “Inflammatory Biomarkers … IL-18”) ([1]; D14, listed as BETi1 0.001%) was 241.77 pg/mL and the “Inflammatory Biomarkers, Mean score values, IL-23” value (“Inflammatory Biomarkers … IL-23” for short) ([1]; D14, listed as BETi1 0.001%) was 51.02 pg/mL. For the same molecule, the “Inflammatory Biomarkers, Mean score values, IL-36” value (“Inflammatory Biomarkers … IL-36” for short) ([1]; D14, listed as BETi1 0.001%) was 65.63 pg/mL, the “Inflammatory Biomarkers, Mean score values, TNF-α” value (“Inflammatory Biomarkers … TNF-α” for short) ([1]; D14, listed as BETi1 0.001%) was 36.20 pg/mL and the “Inflammatory Biomarkers … IL-1β” value ([1]; D14, listed as BETi1 0.1%) was 24.31 pg/mL. For the same molecule, the “Inflammatory Biomarkers … IL-6” value ([1]; D14, listed as BETi1 0.1%) was 56.29 pg/mL, the “Inflammatory Biomarkers … IL-8” value ([1]; D14, listed as BETi1 0.1%) was 21.40 pg/mL and the “Inflammatory Biomarkers … IL-17” value ([1]; D14, listed as BETi1 0.1%) was 25.08 pg/mL. For the same molecule, the “Inflammatory Biomarkers … IL-18” value ([1]; D14, listed as BETi1 0.1%) was 138.90 pg/mL, the “Inflammatory Biomarkers … IL-23” value ([1]; D14, listed as BETi1 0.1%) was 20.66 pg/mL and the “Inflammatory Biomarkers … IL-36” value ([1]; D14, listed as BETi1 0.1%) was 26.91 pg/mL. The “Inflammatory Biomarkers … TNF-α” value ([1]; D14, listed as BETi1 0.1%) was 18.27 pg/mL, the “Inflammatory Biomarkers … IL-1β” value ([1]; D14, listed as BETi1 1.0%) was 39.46 pg/mL and the “Inflammatory Biomarkers … IL-6” value ([1]; D14, listed as BETi1 1.0%) was 96.09 pg/mL. The “Inflammatory Biomarkers … IL-8” value ([1]; D14, listed as BETi1 1.0%) was 23.50 pg/mL, the “Inflammatory Biomarkers … IL-17” value ([1]; D14, listed as BETi1 1.0%) was 54.13 pg/mL and the “Inflammatory Biomarkers … IL-18” value ([1]; D14, listed as BETi1 1.0%) was 202.85 pg/mL. The “Inflammatory Biomarkers … IL-23” value ([1]; D14, listed as BETi1 1.0%) was 33.19 pg/mL, the “Inflammatory Biomarkers … IL-36” value ([1]; D14, listed as BETi1 1.0%) was 52.58 pg/mL and the “Inflammatory Biomarkers … TNF-α” value ([1]; D14, listed as BETi1 1.0%) was 25.05 pg/mL. For the same molecule, the “Inflammatory Biomarkers … IL-1β” value ([1]; D14, listed as BETi10.01%) was 32.62 pg/mL, the “Inflammatory Biomarkers … IL-6” value ([1]; D14, listed as BETi10.01%) was 74.31 pg/mL and the “Inflammatory Biomarkers … IL-8” value ([1]; D14, listed as BETi10.01%) was 30.82 pg/mL. The “Inflammatory Biomarkers … IL-17” value ([1]; D14, listed as BETi10.01%) was 33.44 pg/mL, the “Inflammatory Biomarkers … IL-18” value ([1]; D14, listed as BETi10.01%) was 146.86 pg/mL and the “Inflammatory Biomarkers … IL-23” value ([1]; D14, listed as BETi10.01%) was 30.04 pg/mL. For the same molecule, the “Inflammatory Biomarkers … IL-36” value ([1]; D14, listed as BETi10.01%) was 30.38 pg/mL, the “Inflammatory Biomarkers … TNF-α” value ([1]; D14, listed as BETi10.01%) was 22.16 pg/mL and the “tolerability, synovium findings” value (right knee joint; intra-articular 7.5, 75, 150 mg, 28 days) was “overall well-tolerated”. The “total Mankin score, right knee joint” value (right knee joint; intra-articular, 14-points scale) was “total Mankin score of zero except for one animal at 75 mg dose”.
